Laboratory results reported in patent publication US9758526B2, “Quinoline-substituted compound” (TAIHO PHARMACEUTICAL CO., LTD., priority 2013, dated 2017).

What was measured:
[1] = system: NCI-H1975 expressing EGFR (T790M/L858R); assay: Growth inhibition, NCI-H1975 expressing EGFR (T790M/L858R); assay type: cell-based; settings: Homo sapiens, NCI-H1975, 72 h; cultured three days, CellTiter-Glo
Description: (§1) (1) A human […] lung cancer cell line NCI-H1975 expressing EGFR (T790M/L858R), (2) a human non-small cell lung cancer cell line HCC827 expressing EGFR (d746-750), and (3) a human epithelioid cancer cell line A431 expressing EGFR (WT) were each suspended in complete growth medium recommended by ATCC. The cell suspensions were seeded in each well of a 384-well flat microplate or a 96-well flat plate, and cultured in an incubator containing 5% carbon dioxide gas at 37° C. for one day. Each compound of the present invention was dissolved in DMSO, and serial dilutions of the test compound were prepared using DMSO (to a concentration 500 times the final concentration). The DMSO solution of the test compound or DMSO was diluted with complete growth medium, and the resulting solution was added to each well of the cell culture plate so that the final concentration of DMSO was 0.2%. Then, the cells were cultured in an incubator containing 5% carbon dioxide gas at 37° C. for three days. The number of cells was measured before the addition of the DMSO solution of the test compound, as well as after addition and culture by using a CellTiter-Glo Assay® (produced by Promega) according to a protocol recommended by Promega.
(§2) For each cell, the cell growth inhibition rates of the wells to which the test compounds at various concentrations were added were calculated by the following formula. Then, the obtained inhibition rates (%) at the respective concentrations were plotted for each test compound, and the GI50 value (nM), which is a test compound concentration at which the cell growth can be inhibited by 50%, was determined using XLfit curve-fitting software (IDBS). • Cell Growth Inhibition Rate (%)=(C−T)/(C−CO)×100 • T: Luminescence intensity of well cultured for three days after addition of the test compound solution • C: Luminescence intensity of well cultured for three days after addition of DMSO • C0: Luminescence intensity of well before addition of the test compound solution

EGFR (d746-750/T790M) = target: T1, EGFR (d746-750/T790M) (Homo sapiens, UniProt P00533, DEL746-750/T790M); assay: EGFR (d746-750/T790M) kinase inhibitory activity; assay type: biochemical; settings: ATP 1.5 μM
T1 construct: purchased Carna Biosciences, Inc
T1 sequence (P00533 with tags, fused parts or gaps DEL746-750/T790M limits assumed): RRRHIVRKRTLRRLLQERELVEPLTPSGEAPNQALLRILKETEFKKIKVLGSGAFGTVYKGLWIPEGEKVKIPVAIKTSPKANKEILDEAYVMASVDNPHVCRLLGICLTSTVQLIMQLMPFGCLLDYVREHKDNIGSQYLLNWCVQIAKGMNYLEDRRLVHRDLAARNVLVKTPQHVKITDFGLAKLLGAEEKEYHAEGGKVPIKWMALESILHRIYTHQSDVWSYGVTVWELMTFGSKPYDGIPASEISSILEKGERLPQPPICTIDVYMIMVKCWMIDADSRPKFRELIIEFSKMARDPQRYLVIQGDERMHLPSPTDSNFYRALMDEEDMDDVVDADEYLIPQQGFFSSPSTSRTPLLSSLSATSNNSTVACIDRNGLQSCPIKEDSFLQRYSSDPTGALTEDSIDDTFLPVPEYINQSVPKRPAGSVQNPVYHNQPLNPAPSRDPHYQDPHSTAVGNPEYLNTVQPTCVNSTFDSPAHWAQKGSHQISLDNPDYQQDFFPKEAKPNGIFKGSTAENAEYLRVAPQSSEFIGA
Description: (§3) Among the materials of the inhibitory activity measurement, the substrate peptide and the kinase protein were obtained as follows. A peptide with biotinylated N-terminus (biotin-EEPLYWSFPAKKK) was synthesized with reference to FL-Peptide 22, a reagent for LabChip® series of PerkinElmer, Inc. For the kinase protein, a purified recombinant human EGFR (T790M/L858R) protein of Carna Biosciences, Inc. was purchased.
(§4) The inhibitory activity measurement was performed as follows. The compounds of the present invention were individually dissolved in dimethyl sulfoxide (DMSO), and serial dilutions of these compounds were prepared using DMSO. Subsequently, a solution containing the substrate peptide (final concentration: 250 nM), magnesium chloride (final concentration: 10 mM), manganese chloride (final concentration: 10 mM), and ATP (final concentration: 1 μM) in a buffer solution for kinase reaction (Carna Biosciences, Inc.) was mixed with the dilutions of the compounds (final concentration of DMSO upon kinase reaction: 2.5%) or DMSO (final concentration: 2.5%). EGFR (T790M/L858R) protein was further added thereto, and the mixtures were incubated at 25° C. for 120 minutes to carry out a kinase reaction. EDTA was added thereto to a final concentration of 24 mM to thereby terminate the reaction. A phosphorylated thyrosine detection solution containing europium (Eu)-labeled anti-phosphorylated tyrosine antibody PT66 (PerkinElmer, Inc.) and SureLight APC-SA (PerkinElmer, Inc.) was added to the reaction mixtures, and the mixtures were allowed to stand at room temperature for 2 hours or more. For the background, a sample to which EDTA was added before addition of EGFR (T790M/L858R) protein was incubated at 25° C. for 120 minutes, using DMSO instead of the DMSO solution of the compound. The detection solution was also added to this sample, and the mixture was allowed to stand for 2 hours or more. Finally, for all of the test samples, the amount of fluorescence at the time of irradiation of excitation light having a wavelength of 337 nm was measured at dual wavelengths of 620 nm and 665 nm by PHERAstar FS (BMG LABTECH), and a ratio of the fluorescence amounts at the two wavelengths was obtained as data.
(§5) Based on the above rates, phosphorylation inhibition rates (%) were calculated for the samples to which various concentrations of the compound solutions were added. Finally, the obtained reaction inhibition rates (%) at the respective concentrations were plotted for each compound, and the IC50 value (nM), which is a compound concentration at which phosphorylation by EGFR (T790M/L858R) is inhibited by 50%, was determined using XLfit curve-fitting software (IDBS).
The inhibitory activities of the compounds of the present invention against EGFR (d746-750/T790M) kinase activity were measured.
The materials, the measurement method, and the data analysis method were substantially the same as those shown in the above description regarding “Measurement of EGFR (T790M/L858R) Kinase Inhibitory Activity,” except that a purified recombinant human EGFR (d746-750/T790M) protein purchased from Carna Biosciences, Inc. was used as the kinase protein, and the measurement was performed with an ATP final concentration of 1.5 μM. Finally, the IC50 value (nM) of each compound with respect to EGFR (d746-750/T790M) was determined by data analysis.

[2] = system: HCC827 expressing EGFR (d746-750); assay: Growth inhibition, HCC827 expressing EGFR (d746-750); assay type: cell-based; settings: Homo sapiens, HCC827, 72 h; cultured three days, CellTiter-Glo
Description: as §1, §2

EGFR (L858R) = target: T2, EGFR (L858R) (Homo sapiens, UniProt P00533, L858R); assay: EGFR (L858R) kinase inhibitory activity; assay type: biochemical; settings: ATP 4 μM
T2 construct: purchased Carna Biosciences, Inc
T2 sequence (P00533 25-1210 L858R): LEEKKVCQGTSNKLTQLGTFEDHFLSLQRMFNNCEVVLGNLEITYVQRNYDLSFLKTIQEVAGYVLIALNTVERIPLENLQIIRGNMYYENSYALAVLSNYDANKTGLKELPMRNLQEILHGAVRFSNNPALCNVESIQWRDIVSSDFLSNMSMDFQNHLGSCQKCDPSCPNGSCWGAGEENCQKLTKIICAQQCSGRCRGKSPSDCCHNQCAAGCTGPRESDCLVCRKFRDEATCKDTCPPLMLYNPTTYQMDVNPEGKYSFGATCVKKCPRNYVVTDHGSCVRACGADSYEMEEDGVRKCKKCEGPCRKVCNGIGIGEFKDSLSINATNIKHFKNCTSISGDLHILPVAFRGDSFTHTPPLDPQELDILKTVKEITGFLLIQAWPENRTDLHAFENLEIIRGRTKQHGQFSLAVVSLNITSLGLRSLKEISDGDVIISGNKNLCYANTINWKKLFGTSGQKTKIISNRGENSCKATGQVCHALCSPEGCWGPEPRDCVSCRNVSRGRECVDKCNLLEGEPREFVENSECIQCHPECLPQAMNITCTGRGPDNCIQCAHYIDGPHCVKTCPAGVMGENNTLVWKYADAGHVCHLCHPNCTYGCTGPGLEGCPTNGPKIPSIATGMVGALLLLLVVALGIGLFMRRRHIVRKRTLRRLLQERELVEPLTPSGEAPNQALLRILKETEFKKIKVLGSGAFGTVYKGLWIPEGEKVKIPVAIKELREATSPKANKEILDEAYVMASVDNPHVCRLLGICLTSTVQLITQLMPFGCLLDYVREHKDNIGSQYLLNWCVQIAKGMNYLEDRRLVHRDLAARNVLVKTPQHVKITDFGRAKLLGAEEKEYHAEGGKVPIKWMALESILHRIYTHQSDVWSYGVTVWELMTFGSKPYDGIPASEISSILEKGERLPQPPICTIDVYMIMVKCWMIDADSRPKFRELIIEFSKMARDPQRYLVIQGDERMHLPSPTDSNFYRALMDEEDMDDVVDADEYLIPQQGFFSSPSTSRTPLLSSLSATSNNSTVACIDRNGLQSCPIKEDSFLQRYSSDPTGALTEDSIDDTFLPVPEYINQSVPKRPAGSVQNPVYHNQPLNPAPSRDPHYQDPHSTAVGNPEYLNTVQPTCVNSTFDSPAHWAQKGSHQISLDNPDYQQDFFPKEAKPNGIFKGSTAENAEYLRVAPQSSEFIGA
Description: as §3, §4, §5
The inhibitory activities of the compounds of the present invention against EGFR (L858R) kinase activity were measured.
The materials, the measurement method, and the data analysis method were substantially the same as those shown in the above description regarding “Measurement of EGFR (T790M/L858R) Kinase Inhibitory Activity,” except that a purified recombinant human EGFR (L858R) protein purchased from Carna Biosciences, Inc. was used as the kinase protein, and the measurement was performed with ATP at a final concentration of 4 μM. Finally, the IC50 value (nM) of each compound with respect to EGFR (L858R) was determined by data analysis.

EGFR (T790M/L858R) = target: T3, EGFR (T790M/L858R) (Homo sapiens, UniProt P00533, L858R/T790M); assay: EGFR (T790M/L858R) kinase inhibitory activity; assay type: biochemical; settings: ATP 1 μM, 25° C. for 120 minutes
T3 construct: purchased Carna Biosciences, Inc
T3 sequence (P00533 25-1210 T790M/L858R): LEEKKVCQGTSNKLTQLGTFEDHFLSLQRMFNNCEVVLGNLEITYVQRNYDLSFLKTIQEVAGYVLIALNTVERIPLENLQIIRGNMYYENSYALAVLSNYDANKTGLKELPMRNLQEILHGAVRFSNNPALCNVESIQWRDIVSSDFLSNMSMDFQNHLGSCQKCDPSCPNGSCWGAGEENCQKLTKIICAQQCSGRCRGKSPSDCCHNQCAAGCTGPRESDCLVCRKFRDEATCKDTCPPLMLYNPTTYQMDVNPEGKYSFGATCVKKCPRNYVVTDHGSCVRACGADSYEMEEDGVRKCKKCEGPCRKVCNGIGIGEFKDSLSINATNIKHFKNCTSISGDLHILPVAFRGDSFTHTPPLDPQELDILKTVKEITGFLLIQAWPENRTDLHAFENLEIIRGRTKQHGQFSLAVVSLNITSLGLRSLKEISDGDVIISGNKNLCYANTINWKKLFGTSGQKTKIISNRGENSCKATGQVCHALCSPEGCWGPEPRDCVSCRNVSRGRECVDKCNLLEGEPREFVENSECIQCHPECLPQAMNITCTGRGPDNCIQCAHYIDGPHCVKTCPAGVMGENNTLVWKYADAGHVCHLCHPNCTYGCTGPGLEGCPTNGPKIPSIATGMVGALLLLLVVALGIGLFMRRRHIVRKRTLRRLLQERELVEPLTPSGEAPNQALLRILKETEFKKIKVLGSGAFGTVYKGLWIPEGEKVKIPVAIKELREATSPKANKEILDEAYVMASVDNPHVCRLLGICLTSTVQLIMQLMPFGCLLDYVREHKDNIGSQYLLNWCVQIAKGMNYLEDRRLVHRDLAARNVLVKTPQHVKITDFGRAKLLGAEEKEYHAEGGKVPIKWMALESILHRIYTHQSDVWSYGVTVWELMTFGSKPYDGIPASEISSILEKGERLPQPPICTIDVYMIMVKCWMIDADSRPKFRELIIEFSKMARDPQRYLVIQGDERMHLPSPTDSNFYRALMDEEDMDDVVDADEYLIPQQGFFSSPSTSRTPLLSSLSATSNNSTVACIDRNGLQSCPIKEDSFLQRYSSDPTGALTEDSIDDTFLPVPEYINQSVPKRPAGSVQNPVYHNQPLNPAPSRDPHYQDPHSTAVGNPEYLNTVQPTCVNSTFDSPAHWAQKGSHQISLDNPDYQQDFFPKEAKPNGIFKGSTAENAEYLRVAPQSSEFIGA
Description: The inhibitory activities of the compounds of the present invention against EGFR (T790M/L858R) kinase activity were measured.
as §3, §4, §5

EGFR (d746-750) = target: T4, EGFR (d746-750) (Homo sapiens, UniProt P00533, DEL746-750); assay: EGFR (d746-750) kinase inhibitory activity; assay type: biochemical; settings: ATP 5 μM, kinase reaction 90 minutes
T4 construct: purchased Carna Biosciences, Inc
T4 sequence (P00533 with tags, fused parts or gaps DEL746-750 limits assumed): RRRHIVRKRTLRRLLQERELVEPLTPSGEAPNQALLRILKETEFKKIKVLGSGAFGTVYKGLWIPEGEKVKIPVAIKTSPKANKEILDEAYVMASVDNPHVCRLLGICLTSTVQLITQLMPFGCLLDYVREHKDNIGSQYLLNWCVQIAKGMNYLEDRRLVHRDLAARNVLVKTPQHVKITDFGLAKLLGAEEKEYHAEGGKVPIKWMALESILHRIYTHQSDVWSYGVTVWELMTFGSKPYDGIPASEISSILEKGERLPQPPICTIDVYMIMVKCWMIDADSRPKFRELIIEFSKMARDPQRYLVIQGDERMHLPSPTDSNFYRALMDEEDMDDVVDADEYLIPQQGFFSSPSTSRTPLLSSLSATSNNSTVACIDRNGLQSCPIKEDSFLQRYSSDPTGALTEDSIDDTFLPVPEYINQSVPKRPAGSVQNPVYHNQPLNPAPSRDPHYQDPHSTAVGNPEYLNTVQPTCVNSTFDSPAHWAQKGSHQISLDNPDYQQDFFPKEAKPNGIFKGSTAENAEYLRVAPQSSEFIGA
Description: as §3, §4, §5
The inhibitory activities of the compounds of the present invention against EGFR (d746-750) kinase activity were measured.
The materials, the measurement method, and the data analysis method were substantially the same as those shown in the above description regarding “Measurement of EGFR (T790M/L858R) Kinase Inhibitory Activity,” except that a purified recombinant human EGFR (d746-750) protein purchased from Carna Biosciences, Inc. was used as the kinase protein, the measurement was performed with ATP at a final concentration of 5 μM, and the incubation for the kinase reaction was performed for 90 minutes. Finally, the IC50 value (nM) of each compound with respect to EGFR (d746-750) was determined by data analysis.

[3] = system: A431 expressing EGFR (WT); assay: Growth inhibition, A431 expressing EGFR (WT); assay type: cell-based; settings: Homo sapiens, A-431, 72 h; cultured three days, CellTiter-Glo
Description: as §1, §2

EGFR (WT) = target: T5, EGFR (WT) (Homo sapiens, UniProt P00533); assay: EGFR (WT) kinase inhibitory activity; assay type: biochemical; settings: substrate peptide 500 nM
T5 construct: expressing a cytoplasmic domain of human EGFR (WT) with its N-terminus fused to a FLAG tag; FLAG (N); made in house; host or cells: insect Sf9 cells, baculovirus expression system
T5 sequence (P00533 669-1210 limits assumed): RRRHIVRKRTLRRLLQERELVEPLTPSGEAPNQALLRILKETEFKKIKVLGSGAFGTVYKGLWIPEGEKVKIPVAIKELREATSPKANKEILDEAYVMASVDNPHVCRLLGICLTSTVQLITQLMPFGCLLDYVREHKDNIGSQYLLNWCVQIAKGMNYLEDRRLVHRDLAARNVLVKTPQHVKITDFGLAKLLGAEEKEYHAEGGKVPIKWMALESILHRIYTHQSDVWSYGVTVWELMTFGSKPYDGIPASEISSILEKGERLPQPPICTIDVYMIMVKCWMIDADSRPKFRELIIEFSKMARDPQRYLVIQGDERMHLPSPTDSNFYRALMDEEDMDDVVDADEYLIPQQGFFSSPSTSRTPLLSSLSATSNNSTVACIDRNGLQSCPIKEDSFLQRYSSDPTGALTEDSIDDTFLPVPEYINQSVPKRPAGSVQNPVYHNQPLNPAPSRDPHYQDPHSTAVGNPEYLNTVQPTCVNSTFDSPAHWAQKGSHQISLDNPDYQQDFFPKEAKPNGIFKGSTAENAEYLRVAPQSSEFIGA
Description: as §3, §4, §5
The inhibitory activities of the compounds of the present invention against EGFR (WT) kinase activity were measured.
The materials, the measurement method, and the data analysis method were substantially the same as those shown in the above description regarding “Measurement of EGFR (T790M/L858R) Kinase Inhibitory Activity,” except that a kinase protein prepared by expressing a cytoplasmic domain of human EGFR (WT) with its N-terminus fused to a FLAG tag in insect Sf9 cells using a baculovirus expression system and then purifying it with anti-FLAG antibody agarose (Sigma-Aldrich) was used as the kinase protein, the final concentration of the substrate peptide was 500 nM, and the final concentration of ATP was […]. Finally, the IC50 value (nM) of each compound with respect to EGFR (WT) was determined by data analysis.

| GI50 [1] [nM] | IC50 (EGFR (d746-750/T790M)) [nM] | GI50 [2] [nM] | IC50 (EGFR (L858R)) [nM] | IC50 (EGFR (T790M/L858R)) [nM] | IC50 (EGFR (d746-750)) [nM] | GI50 [3] [nM] | IC50 (EGFR (WT)) [nM] | SMILES |
| --- | --- | --- | --- | --- | --- | --- | --- | --- |
| 800 | < 0.15 | 66 | < 0.5 | < 0.5 | < 0.15 | 1100 | 1 | C#CC(=O)N[C@@H]1Cn2c(c(-c3cnc4ccccc4c3)c3c(N)ncnc32)C1=C [Example 8, (S)—N-(4-amino-6-methylene-5-(quinolin-3-yl)-7,8-dihydro-6H-pyrimido[5,4-b]pyrrolizin-7-yl)propiolamide] |
| 770 | 0.45 | 7.5 | 5.9 | 2.1 | 2.3 | 4200 | 52 | C=C1c2c(-c3cnc4ccccc4c3)c3c(N)ncnc3n2C[C@H]1NC(=O)C#CC [Example 9, (S)—N-(4-amino-6-methylene-5-(quinolin-3-yl)-7,8-dihydro-6H-pyrimido[5,4-b]pyrrolizin-7-yl)but-2-ynamide] |
| 310 | 0.61 | 8.1 | 2.6 | 1.5 | 1.8 | 4400 | 22 | C=C1c2c(-c3cnc4ccccc4c3)c3c(N)ncnc3n2C[C@H]1NC(=O)/C=C/CN(CC)CC [Example 10, (S,E)-N-(4-amino-6-methylene-5-(quinolin-3-yl)-7,8-dihydro-6H-pyrimido[5,4-b]pyrrolizin-7-yl)-4-(diethylamino)but-2-enamide] |
| 260 | 0.32 | 9.7 | 1.4 | 0.76 | 0.88 | 3900 | 12 | C=C1c2c(-c3cnc4ccccc4c3)c3c(N)ncnc3n2C[C@H]1NC(=O)/C=C/CN(C)CC [Example 11, (S,E)-N-(4-amino-6-methylene-5-(quinolin-3-yl)-7,8-dihydro-6H-pyrimido[5,4-b]pyrrolizin-7-yl)-4-(ethyl(methyl)amino)but-2-enamide] |

More lines, now with the values behind:

| SMILES | GI50 [1] [nM] | IC50 (EGFR (d746-750/T790M)) [nM] | GI50 [2] [nM] | IC50 (EGFR (L858R)) [nM] | IC50 (EGFR (T790M/L858R)) [nM] | IC50 (EGFR (d746-750)) [nM] | GI50 [3] [nM] | IC50 (EGFR (WT)) [nM] |
| --- | --- | --- | --- | --- | --- | --- | --- | --- |
| C=C1c2c(-c3cnc4ccccc4c3)c3c(N)ncnc3n2C[C@H]1NC(=O)/C=C/CN(C)C [Example 4, (S,E)-N-(4-amino-6-methylene-5-(quinolin-3-yl)-7,8-dihydro-6H-pyrimido[5,4-b]pyrrolizin-7-yl)-4-(dimethylamino)but-2-enamide] | 140 | < 0.5 | 5.5 | 0.63 | 0.4 | 0.45 | 2400 | 6 |
| C=C1c2c(-c3cnc4ccccc4c3)c3c(N)ncnc3n2C[C@H]1NC(=O)/C=C/Cl [Example 5, (S,E)-N-(4-amino-6-methylene-5-(quinolin-3-yl)-7,8-dihydro-6H-pyrimido[5,4-b]pyrrolizin-7-yl)-3-chloroacrylamide] | 51 | < 0.15 | 8.1 | < 0.15 | < 0.15 | < 0.15 | 2200 | 0.78 |
| C=C1c2c(-c3cnc4ccccc4c3)c3c(N)ncnc3n2C[C@H]1NC(=O)/C=C\Cl [Example 6, (S,Z)—N-(4-amino-6-methylene-5-(quinolin-3-yl)-7,8-dihydro-6H-pyrimido[5,4-b]pyrrolizin-7-yl)-3-chloroacrylamide] | 54 | < 0.15 | 3.3 | 0.45 | 0.24 | 0.24 | 520 | 4.9 |
| C=C1c2c(-c3cnc4ccccc4c3)c3c(N)ncnc3n2C[C@H]1NC(=O)/C=C/CN1CCCCC1 [Example 7, (S,E)-N-(4-amino-6-methylene-5-(quinolin-3-yl)-7,8-dihydro-6H-pyrimido[5,4-b]pyrrolizin-7-yl)-4-(piperidin-1-yl)but-2-enamide] | 150 | 0.53 | 5.6 | 1.7 | 1 | 1.2 | 2600 | 12 |
